{"source": "patent US20240207207A1", "about": "“METHODS FOR MITIGATING AND PREVENTING PROTEOSTASIS-BASED INJURIES” (San Diego State University (SDSU) Foundation, dba San Diego …, priority 2018, published 2024)", "key": {"[1]": {"test_system": "acute myocardial I/R injury", "experiment": "acute in vivo myocardial ischemia/reperfusion", "parameters": "species or system mouse", "conditions": "acute I/R protocol, 24 h", "method": "In vivo myocardial ischemia/reperfusion. Surgical myocardial I/R was performed as previously described^10. Briefly, mice were anesthetized with 2% isoflurane and a thoracotomy was performed to isolate the heart, after which the left anterior descending coronary artery (LAD) was ligated with a 6-0 Prolene™ suture for 30 minutes, followed by suture removal and either 24 hours or 7 days of reperfusion. Regional ischemia was confirmed by visual inspection of the discoloration of the myocardium distal of the ligation, which is characteristic of impaired blood flow. Animals assigned as shams underwent the thoracotomy surgical procedure, but weren't subjected to LAD ligation. […] The AAR, INF and left ventricle area (LV) from digitized images of heart sections were analyzed using ImageJ software. […] A separate investigator analyzed the AAR, INF, and LV and was blinded to the animal trial assignments. […] Blood was placed in heparin- and EDTA-coated vacutainer (BD Vacutainer) and centrifuged at 3000 rpm for 10 minutes and plasma samples were analyzed for cardiac troponin I with a Mouse cTnI High-Sensitivity ELISA kit (Life Diagnostics, Inc.).\nTransthoracic echocardiography. […] Diastolic function was determined as previously described^33. […] Waveforms were recorded and analyzed for peak early- and late-diastolic transmitral flow velocities corresponding to E and A waves, respectively. […]"}, "[2]": {"test_system": "IRE1-regulated Erdj4, PERK-regulated Atf4", "experiment": "qPCR for IRE1 and PERK target genes in mouse hearts", "assay_type": "in vivo", "conditions": "WT or ATF6 cKO mice, 24 hours after treatment, LV", "method": "(§1) Immunoblot analysis. NRVM were lysed and subjected to immunoblot analysis, as previously described^10. In brief, cultures were lysed with VC lysis buffer made from 20 mM Tris-HCl (pH 7.5), 150 mM NaCl, 0.1% SDS, 1% Triton X-100™, protease inhibitor cocktail (Roche Diagnostics, Indianapolis, IN) and phosphatase inhibitor cocktail (Roche Diagnostics). Samples comprising 10 μg of protein were mixed with Laemmli sample buffer, boiled, then subjected to SDS-PAGE followed by transfer onto PVDF membranes for immunoblotting. Full-length Atf6 (p90) was detected with an antibody from SAB Signalway™ Antibody (1:1000, cat #32008, College Park, MD), while active Atf6 (p50) was detected with an antibody from Proteintech™ (1:1000, cat #24169-1-AP, Rosemont, IL). […] The oxidation state of ATF6 in NRVM treated with compound 147 was analyzed by gel-shift essentially as previously described^32. […]\n(§2) Malondialdehyde assay. Lipid peroxidation was determined by measuring the levels of malondialdehyde (MDA) using a TBARS assay kit (Cayman Chemical, Ann Arbor, MI) according to the manufacturer's instructions as previously described^10. […]"}, "[3]": {"test_system": "ATF6-regulated genes Grp78 and Cat", "experiment": "ATF6 target gene induction in mouse tissues after intravenous administration (qPCR, IHC, immunoblot)", "conditions": "in vivo, mouse heart", "method": "as §1, §2"}, "[4]": {"test_system": "hearts of mice that were not subjected to I/R", "experiment": "7-day dosing protocols in mice not subjected to I/R: cardiac performance and safety", "assay_type": "in vivo, mouse", "method": "In vivo myocardial ischemia/reperfusion. Surgical myocardial I/R was performed as previously described^10. Briefly, mice were anesthetized with 2% isoflurane and a thoracotomy was performed to isolate the heart, after which the left anterior descending coronary artery (LAD) was ligated with a 6-0 Prolene™ suture for 30 minutes, followed by suture removal and either 24 hours or 7 days of reperfusion. Regional ischemia was confirmed by visual inspection of the discoloration of the myocardium distal of the ligation, which is characteristic of impaired blood flow. Animals assigned as shams underwent the thoracotomy surgical procedure, but weren't subjected to LAD ligation. Animals were randomly assigned to trial groups prior to outset of the experiment by a single investigator, while the surgeon and data analyst were blinded to trial assignments. Animals designated to receive either control compound or compound 147 at the time of reperfusion received 2 mg/kg of respective compounds via IV injection 5 minutes prior to release of the ligation. Twenty-four hours after reperfusion, 1% of Evans Blue was injected apically to determine the area at risk (AAR). Hearts were harvested and 1-mm sections of the hearts were stained with 1% 2,3,5-triphenyltetrazolium chloride (TTC) to measure the infarcted area (INF) as previously described^36. The AAR, INF and left ventricle area (LV) from digitized images of heart sections were analyzed using ImageJ software. […] A separate investigator analyzed the AAR, INF, and LV and was blinded to the animal trial assignments. […] Blood was placed in heparin- and EDTA-coated vacutainer (BD Vacutainer) and centrifuged at 3000 rpm for 10 minutes and plasma samples were analyzed for cardiac troponin I with a Mouse cTnI High-Sensitivity ELISA kit (Life Diagnostics, Inc.).\nHepatic triglyceride assay. Hepatic triglyceride assay was performed as previously described^39. Briefly, livers were harvested and 10 mg extracts were homogenized and analyzed for triglyceride content using the EnzyChrom Triglyceride Assay Kit™ (BioAssay Systems).\nTransthoracic echocardiography. Transthoracic echocardiography was performed using an ultrasound imaging system (Vevo 2100 System™, Fujifilm VisualSonics, Toronto, Ontario, Canada) as described^40. Diastolic function was determined as previously described^33. Briefly, echocardiography coupled with pulse-wave Doppler was used to visualize transmitral flow velocities and were recorded by imaging the mitral orifice at the point of the mitral leaflets. Waveforms were recorded and analyzed for peak early- and late-diastolic transmitral flow velocities corresponding to E and A waves, respectively.\nMalondialdehyde assay. Lipid peroxidation was determined by measuring the levels of malondialdehyde (MDA) using a TBARS assay kit (Cayman Chemical, Ann Arbor, MI) according to the manufacturer's instructions as previously described^10. In vivo experimental compound administration. Control compound and compound 147 were suspended to a final concentration of 0.2 mg/mL in 10% DMSO. Mice were weighed prior to administration of compounds and, subsequently, non-anesthetized 10-week old WT or ATF6 cKO mice were injected with ˜250 μL of stock compounds via the lateral tail vein depending upon body mass to ensure accurate administration of 2 mg/kg. […] Since compound 147 and tunicamycin have similar molecular weights, this dose of compound 147 is near the molar equivalent of the typical dose of tunicamycin. […]"}, "[5]": {"experiment": "general in vivo properties (brain penetration, tolerance)", "method": "Malondialdehyde assay. Lipid peroxidation was determined by measuring the levels of malondialdehyde (MDA) using a TBARS assay kit (Cayman Chemical, Ann Arbor, MI) according to the manufacturer's instructions as previously described^10. In vivo experimental compound administration. Control compound and compound 147 were suspended to a final concentration of 0.2 mg/mL in 10% DMSO. Mice were weighed prior to administration of compounds and, subsequently, non-anesthetized 10-week old WT or ATF6 cKO mice were injected with ˜250 μL of stock compounds via the lateral tail vein depending upon body mass to ensure accurate administration of 2 mg/kg. […] Since compound 147 and tunicamycin have similar molecular weights, this dose of compound 147 is near the molar equivalent of the typical dose of tunicamycin. It is relevant to note that for compound 147, a dose of 2 mg/kg is similar to FDA-approved cardiovascular drugs, such as many angiotensin-converting enzyme (ACE) inhibitors, which are used in small-animal models at 2 mg/kg^42."}, "[6]": {"conditions": "Trials 1-3, 7 days, mice without I/R"}}}
{"molecule": "Cc1ccc(O)c(NC(=O)CCc2ccccc2)c1", "note": "[compound 147]", "values": [{"measurement": "cardiac performance, chamber size, or pathological hypertrophy by echocardiography", "setting": "[1]", "result": "no effect"}, {"measurement": "expression levels of Erdj4 or Atf4 in hearts", "setting": "[2]", "result": "no effect"}, {"measurement": "duration of ATF6-target gene induction", "setting": "[3]", "result": "~3", "unit": "days"}, {"measurement": "expression of pathology-associated genes Nppa, Nppb, Col1a1 or Myh7", "setting": "[4]; [6]", "result": "None of the dosing protocols resulted in"}, {"measurement": "increased plasma cTnI", "setting": "[4]; [6]", "result": "None of the dosing protocols resulted in"}, {"measurement": "pathological cardiac hypertrophy (heart weight to body weight)", "setting": "[4]; [6]", "result": "None of the dosing protocols resulted in"}, {"measurement": "liver or kidney deficits (steatosis by hepatic triglyceride accumulation, glomerular filtration rate by creatinine clearance)", "setting": "[4]; any of the trials, data not shown", "result": "no apparent deficits were observed"}, {"measurement": "cardiotoxicity", "setting": "[4]; over the course of 7 days", "result": "does not induce cardiotoxicity"}, {"measurement": "blood brain barrier crossing", "setting": "[5]", "result": "has the capacity to cross the blood brain barrier"}, {"measurement": "toxicity or deleterious off-target effects", "setting": "[5]", "result": "does not exhibit any apparent toxicity or deleterious off-target effects"}]}
